Reference: US20260193264A1, “BENZOYPARAZINE PYRAZINES AND THEIR USES” (FOGHORN THERAPEUTICS INC., priority 2022, published 2026)

Assays:
[1] = target: T1, HiBit-BRG1 fusion protein in stable HeLa cell line expressing HiBit-BRG1 and LgBit (Homo sapiens, UniProt P51532); assay: HiBiT-BRG1 cell-based degradation assay (Nano-Glo HiBiT, 24 h); conditions: HeLa HiBit-BRG1/LgBit cells; for DC50: read-out: BRMG1 HiBit Degradation IC50; for Dmax: top dose 30 μM, read-out: BRG1 HiBit Degradation Maximum (%)
T1 construct: expressed in transfected cells
How it was run: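 Degradation calculated from NanoBiT luminescence relative to DMSO-treated cells (high) and cells given 2 μM known BRM/BRG1 degrader (low). HeLa cells stably expressing HiBiT-BRG1 plus LgBiT were exposed to compound for 24 h before lytic HiBiT detection.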

[2] = target: T2, HiBiT-BRM fusion protein in stable HeLa cell line (Homo sapiens, UniProt P51531); assay: HiBiT-BRM cell-based degradation assay (Nano-Glo HiBiT Lytic Detection, 24 h); set-up: DC50: scale not given here; conditions: HeLa HiBiT-BRM cells; for DC50: read-out: BRM HiBit Degradation IC50; for BRM HiBit Degradation Maximum (%): top dose 30 μM
T2 construct: expressed in transfected cells
How it was run: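 Percent degradation was scaled between DMSO-treated cells and cells given 2 μM of a known BRM/BRG1 degrader. Readout was NanoBiT luminescence after lytic detection. HeLa cells stably expressing HiBiT-BRM were dosed for 24 h, 10 points, 3-fold steps from 30 μM final, in duplicate.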

T2 sequence (P51531 whole entry, the tested form may be a part): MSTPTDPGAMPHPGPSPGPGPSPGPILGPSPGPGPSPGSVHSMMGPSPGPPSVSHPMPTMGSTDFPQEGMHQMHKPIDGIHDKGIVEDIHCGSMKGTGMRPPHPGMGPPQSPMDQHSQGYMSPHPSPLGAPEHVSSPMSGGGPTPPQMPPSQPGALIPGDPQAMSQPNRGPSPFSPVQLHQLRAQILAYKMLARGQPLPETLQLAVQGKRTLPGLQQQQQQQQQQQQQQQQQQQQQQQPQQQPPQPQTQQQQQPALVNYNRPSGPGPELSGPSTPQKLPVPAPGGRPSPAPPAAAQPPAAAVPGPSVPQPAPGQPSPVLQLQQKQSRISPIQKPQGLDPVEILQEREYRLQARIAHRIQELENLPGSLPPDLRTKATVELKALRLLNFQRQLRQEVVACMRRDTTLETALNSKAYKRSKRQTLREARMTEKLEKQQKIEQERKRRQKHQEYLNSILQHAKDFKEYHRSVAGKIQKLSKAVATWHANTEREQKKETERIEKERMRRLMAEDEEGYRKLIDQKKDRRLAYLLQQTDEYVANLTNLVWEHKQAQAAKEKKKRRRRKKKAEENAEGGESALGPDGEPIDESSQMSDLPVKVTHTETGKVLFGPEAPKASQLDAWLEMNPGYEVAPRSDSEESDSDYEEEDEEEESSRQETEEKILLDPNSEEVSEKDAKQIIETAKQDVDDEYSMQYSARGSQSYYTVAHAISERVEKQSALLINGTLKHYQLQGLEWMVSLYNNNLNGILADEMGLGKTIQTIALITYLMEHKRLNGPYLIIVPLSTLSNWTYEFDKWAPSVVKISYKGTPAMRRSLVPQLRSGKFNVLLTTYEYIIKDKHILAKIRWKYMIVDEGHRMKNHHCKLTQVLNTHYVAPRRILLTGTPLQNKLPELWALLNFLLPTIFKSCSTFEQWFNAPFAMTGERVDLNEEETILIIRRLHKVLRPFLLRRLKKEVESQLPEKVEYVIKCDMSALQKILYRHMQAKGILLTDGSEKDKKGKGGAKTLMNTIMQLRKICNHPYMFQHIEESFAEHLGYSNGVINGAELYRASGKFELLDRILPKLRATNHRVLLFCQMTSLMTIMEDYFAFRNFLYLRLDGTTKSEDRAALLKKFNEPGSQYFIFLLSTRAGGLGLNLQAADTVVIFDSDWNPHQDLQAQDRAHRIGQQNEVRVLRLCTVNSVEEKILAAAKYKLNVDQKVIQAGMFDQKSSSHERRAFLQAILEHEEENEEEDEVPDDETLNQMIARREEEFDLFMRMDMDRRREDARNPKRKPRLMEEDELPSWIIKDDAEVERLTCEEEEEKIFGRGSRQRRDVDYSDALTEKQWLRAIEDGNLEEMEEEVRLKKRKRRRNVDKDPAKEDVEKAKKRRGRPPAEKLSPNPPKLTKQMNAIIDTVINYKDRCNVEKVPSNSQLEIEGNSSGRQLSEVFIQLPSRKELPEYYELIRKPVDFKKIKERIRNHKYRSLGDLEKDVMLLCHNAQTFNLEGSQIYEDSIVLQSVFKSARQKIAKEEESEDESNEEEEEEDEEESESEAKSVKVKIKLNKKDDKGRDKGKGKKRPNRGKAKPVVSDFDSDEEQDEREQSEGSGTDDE
T1 sequence (P51532 whole entry, the tested form may be a part): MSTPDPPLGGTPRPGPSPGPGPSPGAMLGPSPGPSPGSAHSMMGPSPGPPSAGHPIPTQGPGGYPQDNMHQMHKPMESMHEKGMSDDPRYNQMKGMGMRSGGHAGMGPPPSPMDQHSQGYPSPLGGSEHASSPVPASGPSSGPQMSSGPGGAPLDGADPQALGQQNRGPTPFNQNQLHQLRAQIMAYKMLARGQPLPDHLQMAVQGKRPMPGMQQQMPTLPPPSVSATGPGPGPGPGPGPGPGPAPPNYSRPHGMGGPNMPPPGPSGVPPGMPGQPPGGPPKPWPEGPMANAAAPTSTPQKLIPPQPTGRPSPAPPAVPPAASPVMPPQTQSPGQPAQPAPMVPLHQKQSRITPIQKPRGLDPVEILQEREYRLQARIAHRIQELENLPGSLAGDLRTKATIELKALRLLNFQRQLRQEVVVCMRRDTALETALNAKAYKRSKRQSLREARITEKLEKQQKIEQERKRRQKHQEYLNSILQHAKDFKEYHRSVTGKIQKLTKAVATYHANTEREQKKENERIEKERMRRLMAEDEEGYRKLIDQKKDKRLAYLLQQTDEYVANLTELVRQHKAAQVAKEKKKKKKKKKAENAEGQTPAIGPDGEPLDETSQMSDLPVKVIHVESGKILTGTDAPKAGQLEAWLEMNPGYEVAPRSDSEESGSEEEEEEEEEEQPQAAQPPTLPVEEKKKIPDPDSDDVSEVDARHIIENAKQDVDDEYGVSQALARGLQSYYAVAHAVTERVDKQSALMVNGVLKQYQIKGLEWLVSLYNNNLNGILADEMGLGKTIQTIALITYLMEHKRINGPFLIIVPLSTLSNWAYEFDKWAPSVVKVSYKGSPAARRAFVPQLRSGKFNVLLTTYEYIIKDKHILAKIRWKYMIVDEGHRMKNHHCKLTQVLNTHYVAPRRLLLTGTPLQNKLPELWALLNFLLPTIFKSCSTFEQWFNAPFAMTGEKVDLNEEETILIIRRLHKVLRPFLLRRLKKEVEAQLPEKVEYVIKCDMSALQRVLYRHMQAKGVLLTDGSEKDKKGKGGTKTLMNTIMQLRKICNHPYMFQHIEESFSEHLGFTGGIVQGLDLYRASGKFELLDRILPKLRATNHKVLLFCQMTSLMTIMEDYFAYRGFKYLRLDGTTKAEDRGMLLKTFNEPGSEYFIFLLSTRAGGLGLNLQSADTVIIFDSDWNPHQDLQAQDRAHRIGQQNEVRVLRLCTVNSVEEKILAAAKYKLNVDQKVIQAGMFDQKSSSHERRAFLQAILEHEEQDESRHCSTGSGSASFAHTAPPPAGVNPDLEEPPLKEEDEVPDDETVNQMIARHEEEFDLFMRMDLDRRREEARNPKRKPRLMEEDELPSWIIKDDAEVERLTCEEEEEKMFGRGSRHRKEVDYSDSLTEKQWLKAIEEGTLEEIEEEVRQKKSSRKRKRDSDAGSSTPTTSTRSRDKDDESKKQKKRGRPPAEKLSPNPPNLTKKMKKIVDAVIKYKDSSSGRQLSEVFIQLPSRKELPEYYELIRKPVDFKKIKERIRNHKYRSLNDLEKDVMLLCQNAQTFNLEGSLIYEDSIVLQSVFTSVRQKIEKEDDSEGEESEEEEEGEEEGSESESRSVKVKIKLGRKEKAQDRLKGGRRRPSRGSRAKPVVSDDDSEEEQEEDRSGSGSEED

DC50 [1] [nM] | Dmax [1] [%] | DC50 [2] [nM] | SMILES | BRM HiBit Degradation Maximum (%) [2]
< 10 | > 75 | < 10 | Cc1ncsc1-c1ccc([C@H](C)NC(=O)[C@@H]2C[C@@H](O)CN2C(=O)[C@@H](c2cc(N3CCOC4(CN(c5ccc6cc(-c7ccccc7O)nnc6c5)C4)C3)no2)C(C)C)cc1 [Compound 162, (2S,4R)-4-hydroxy-1-((R)-2-(3-(2-(3-(2-hydroxyphenyl)cinnolin-7-yl)-5-oxa-2,8-diazaspiro[3.5]nonan-8-yl)isoxazol-5-yl)-3-methylbutanoyl)-N-((S)-1-(4-(4-methylthiazol-5-yl)phenyl)ethyl)pyrrolidine-2-carboxamide] | A (“A” indicates maximum degradation ≥75%)
– | < 50 | < 10 | Cc1ncsc1-c1ccc([C@H](C)NC(=O)[C@@H]2C[C@@H](O)CN2C(=O)[C@@H](c2cc(N3CC4(CN(c5cc(Cl)c6cc(-c7ccccc7O)nnc6c5)C4)C3)no2)C(C)C)cc1 [Compound 163, (2S,4R)-1-((R)-2-(3-(6-(5-chloro-3-(2-hydroxyphenyl)cinnolin-7-yl)-2,6-diazaspiro[3.3]heptan-2-yl)isoxazol-5-yl)-3-methylbutanoyl)-4-hydroxy-N-((S)-1-(4-(4-methylthiazol-5-yl)phenyl)ethyl)pyrrolidine-2-carboxamide] | A (“A” indicates maximum degradation ≥75%)
< 10 | > 75 | < 10 | Cc1ncsc1-c1ccc([C@H](C)NC(=O)[C@@H]2C[C@@H](O)CN2C(=O)[C@@H](c2cc(N3CC4(C3)CN(c3cc5cc(-c6ccccc6O)nnc5cc3C(F)F)C4)no2)C(C)C)cc1 [Compound 164, (2S,4R)-1-((R)-2-(3-(6-(7-(difluoromethyl)-3-(2-hydroxyphenyl)cinnolin-6-yl)-2,6-diazaspiro[3.3]heptan-2-yl)isoxazol-5-yl)-3-methylbutanoyl)-4-hydroxy-N-((S)-1-(4-(4-methylthiazol-5-yl)phenyl)ethyl)pyrrolidine-2-carboxamide] | A (“A” indicates maximum degradation ≥75%)
< 10 | > 75 | < 10 | Cc1ncsc1-c1ccc([C@H](C)NC(=O)[C@@H]2C[C@@H](O)CN2C(=O)[C@@H](c2cc(N3CCC4(CC3)CN(c3ccc5nnc(-c6ccccc6O)cc5c3)CCN4C)no2)C(C)C)cc1 [Compound 165, (2S,4R)-4-hydroxy-1-((R)-2-(3-(4-(3-(2-hydroxyphenyl)cinnolin-6-yl)-1-methyl-1,4,9-triazaspiro[5.5]undecan-9-yl)isoxazol-5-yl)-3-methylbutanoyl)-N-((S)-1-(4-(4-methylthiazol-5-yl)phenyl)ethyl)pyrrolidine-2-carboxamide] | A (“A” indicates maximum degradation ≥75%)
> 10 | > 75 | < 10 | Cc1ncsc1-c1ccc([C@H](C)NC(=O)[C@@H]2C[C@@H](O)CN2C(=O)[C@@H](c2cc(N3CCCC4(CN(c5ccc6nnc(-c7ccccc7O)cc6c5)C4)C3)no2)C(C)C)cc1 [Compound 166, (2S,4R)-4-hydroxy-1-((R)-2-(3-(2-(3-(2-hydroxyphenyl)cinnolin-6-yl)-2,6-diazaspiro[3.5]nonan-6-yl)isoxazol-5-yl)-3-methylbutanoyl)-N-((S)-1-(4-(4-methylthiazol-5-yl)phenyl)ethyl)pyrrolidine-2-carboxamide] | A (“A” indicates maximum degradation ≥75%)
– | < 50 | < 10 | Cc1ncsc1-c1ccc([C@H](C)NC(=O)[C@@H]2C[C@@H](O)CN2C(=O)[C@@H](c2cc(N3CC4(C3)CN(c3cc5nnc(-c6ccccc6O)cc5cc3C#N)C4)no2)C(C)C)cc1 [Compound 167, (2S,4R)-1-((R)-2-(3-(6-(6-cyano-3-(2-hydroxyphenyl)cinnolin-7-yl)-2,6-diazaspiro[3.3]heptan-2-yl)isoxazol-5-yl)-3-methylbutanoyl)-4-hydroxy-N-((S)-1-(4-(4-methylthiazol-5-yl)phenyl)ethyl)pyrrolidine-2-carboxamide] | A (“A” indicates maximum degradation ≥75%)
< 10 | > 50 | < 10 | Cc1ncsc1-c1ccc([C@H](C)NC(=O)[C@@H]2C[C@@H](O)CN2C(=O)[C@@H](c2cc(N3CC4(C3)CN(c3cc5nnc(-c6ccccc6O)cc5cc3C(F)F)C4)no2)C(C)C)cc1 [Compound 168, (2S,4R)-1-((R)-2-(3-(6-(6-(difluoromethyl)-3-(2-hydroxyphenyl)cinnolin-7-yl)-2,6-diazaspiro[3.3]heptan-2-yl)isoxazol-5-yl)-3-methylbutanoyl)-4-hydroxy-N-((S)-1-(4-(4-methylthiazol-5-yl)phenyl)ethyl)pyrrolidine-2-carboxamide] | A (“A” indicates maximum degradation ≥75%)

The next lines start with the molecule.

SMILES | DC50 [1] [nM] | Dmax [1] [%] | DC50 [2] [nM] | BRM HiBit Degradation Maximum (%) [2]
Cc1ncsc1-c1ccc([C@H](C)NC(=O)[C@@H]2C[C@@H](O)CN2C(=O)[C@@H](c2cc(N3CCCC4(CN(c5ccc6cc(-c7ccccc7O)nnc6c5)C4)C3)no2)C(C)C)cc1 [Compound 154, (2S,4R)-4-hydroxy-1-((R)-2-(3-(2-(3-(2-hydroxyphenyl)cinnolin-7-yl)-2,6-diazaspiro [3.5]nonan-6-yl)isoxazol-5-yl)-3-methylbutanoyl)-N-((S)-1-(4-(4-methylthiazol-5-yl)phenyl)ethyl)pyrrolidine-2-carboxamide] | < 10 | > 75 | < 10 | A (“A” indicates maximum degradation ≥75%)
Cc1ncsc1-c1ccc([C@H](C)NC(=O)[C@@H]2C[C@@H](O)CN2C(=O)[C@@H](c2cc(N3CCN4CCN(c5ccc6cc(-c7ccccc7O)nnc6c5)CC4C3)no2)C(C)C)cc1 (stereo partly drawn) [Compound 155, (2S,4R)-4-hydroxy-1-((2R)-2-(3-(8-(3-(2-hydroxyphenyl)cinnolin-7-yl)octahydro-2H-pyrazino[1,2-a]pyrazin-2-yl)isoxazol-5-yl)-3-methylbutanoyl)-N-((S)-1-(4-(4-methylthiazol-5-yl)phenyl)ethyl)pyrrolidine-2-carboxamide] | < 10 | > 75 | < 10 | A (“A” indicates maximum degradation ≥75%)
CNC(=O)[C@@H]1C[C@@H](O)CN1C(=O)[C@@H](c1cc(N2CC3(CN(c4ccc5cc(-c6ccccc6O)nnc5c4)C3)C2)no1)C(C)C [Compound 156, (2S,4R)-4-hydroxy-1-((R)-2-(3-(6-(3-(2-hydroxyphenyl)cinnolin-7-yl)-2,6-diazaspiro[3.3]heptan-2-yl)isoxazol-5-yl)-3-methylbutanoyl)-N-methylpyrrolidine-2-carboxamide] | – | < 50 | < 10 | A (“A” indicates maximum degradation ≥75%)
Cc1ncsc1-c1ccc([C@H](C)NC(=O)[C@@H]2C[C@@H](O)CN2C(=O)[C@@H](c2cc(N3CC4(C3)CN(c3cc5nnc(-c6ccccc6O)cc5cc3Cl)C4)no2)C(C)C)cc1 [Compound 157, (2S,4R)-1-((R)-2-(3-(6-(6-chloro-3-(2-hydroxyphenyl)cinnolin-7-yl)-2,6-diazaspiro[3.3]heptan-2-yl)isoxazol-5-yl)-3-methylbutanoyl)-4-hydroxy-N-((S)-1-(4-(4-methylthiazol-5-yl)phenyl)ethyl)pyrrolidine-2-carboxamide] | < 10 | > 50 | < 10 | A (“A” indicates maximum degradation ≥75%)
COc1cc2nnc(-c3ccccc3O)cc2cc1N1CC2(CN(c3cc([C@H](C(=O)N4C[C@H](O)C[C@H]4C(=O)N[C@@H](C)c4ccc(-c5scnc5C)cc4)C(C)C)on3)C2)C1 [Compound 158, (2S,4R)-4-hydroxy-1-((R)-2-(3-(6-(3-(2-hydroxyphenyl)-7-methoxycinnolin-6-yl)-2,6-diazaspiro[3.3]heptan-2-yl)isoxazol-5-yl)-3-methylbutanoyl)-N-((S)-1-(4-(4-methylthiazol-5-yl)phenyl)ethyl)pyrrolidine-2-carboxamide] | < 10 | > 75 | < 10 | A (“A” indicates maximum degradation ≥75%)
COc1cc2cc(-c3ccccc3O)nnc2cc1N1CC2(CN(c3cc([C@H](C(=O)N4C[C@H](O)C[C@H]4C(=O)N[C@@H](C)c4ccc(-c5scnc5C)cc4)C(C)C)on3)C2)C1 [Compound 159, (2S,4R)-4-hydroxy-1-((R)-2-(3-(6-(3-(2-hydroxyphenyl)-6-methoxycinnolin-7-yl)-2,6-diazaspiro[3.3]heptan-2-yl)isoxazol-5-yl)-3-methylbutanoyl)-N-((S)-1-(4-(4-methylthiazol-5-yl)phenyl)ethyl)pyrrolidine-2-carboxamide] | < 10 | > 75 | < 10 | A (“A” indicates maximum degradation ≥75%)
Cc1ncsc1-c1ccc([C@H](C)NC(=O)[C@@H]2C[C@@H](O)CN2C(=O)[C@@H](c2ccnc(N3CC4(CN(c5ccc6nnc(-c7ccccc7O)cc6c5)C4)C3)c2)C(C)C)cc1 [Compound 160, (2S,4R)-4-hydroxy-1-[(2R)-2-(2-{6-[3-(2-hydroxyphenyl)cinnolin-6-yl]-2,6-diazaspiro[3.3]heptan-2-yl}pyridin-4-yl)-3-methylbutanoyl]-N-[(1S)-1-[4-(4-methyl-1,3-thiazol-5-yl)phenyl]ethyl]pyrrolidine-2-carboxamide] | – | < 50 | – | B (“B” indicates maximum degradation ≥50%)
